# In US8575153B2 (Kowa Company, Ltd., priority 2008, dated 2013):
# Counter-ions that a name gives are not always drawn.
# Biological target: Recombinant human JAK3 enzyme (JAK3 kinase region; Ala795-Ser1124) (Homo sapiens, UniProt P52333)
# Assay: JAK3 Kinase Assay (Kinase-Glo luminescent, ATP consumption)
# Conditions: read-out: Inhibition rate (%) of JAK3 kinase activity
# Protocol: Recombinant human JAK3 enzyme (JAK3 kinase region; Ala795-Ser1124) was purchased from Carna Biosciences, Inc.
# The reaction was conducted in a kinase buffer (reaction volume: a total of 50 μl) containing 8 mM MOPS (pH 7.0), 0.2 mM EDTA, a test compound solution prepared to each concentration and 0.5 μg/ml JAK3 enzyme using a 96-well polystyrene plate (clear-bottom white-wall). […] After incubating them at room temperature for 2 hours, 50 μl of Kinase-Glo Luminescent Kinase Assay reagent (Promega) was added to each well, and further incubated at room temperature for 10 minutes. Using a chemiluminescence microplate reader MicroLumat LB96P (Berthold), chemiluminescence intensity was measured to quantitate the amount of ATP remaining after reaction. From the amount of ATP consumed in the phosphorylation reaction, the inhibition rate (%) of JAK3 kinase activity was determined.
# Chain of Recombinant human JAK3 enzyme (JAK3 kinase region; Ala795-Ser1124) (P52333 795-1124): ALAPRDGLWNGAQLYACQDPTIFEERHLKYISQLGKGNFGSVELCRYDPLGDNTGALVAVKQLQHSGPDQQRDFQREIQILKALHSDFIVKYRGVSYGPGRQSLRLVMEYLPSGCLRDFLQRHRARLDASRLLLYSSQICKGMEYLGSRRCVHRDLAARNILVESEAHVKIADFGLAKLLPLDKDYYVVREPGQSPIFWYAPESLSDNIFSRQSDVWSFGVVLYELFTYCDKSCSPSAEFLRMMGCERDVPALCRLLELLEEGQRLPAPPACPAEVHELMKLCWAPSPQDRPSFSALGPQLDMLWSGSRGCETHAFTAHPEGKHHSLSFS
SMILES,inhibition at 0.1 µM,inhibition at 1 µM
"CCN(CC)CCS(=O)(=O)Nc1ccc(Nc2cc(NCc3cc(F)cc(F)c3)c(C(N)=O)cn2)cc1 [Example 304, 6-{[4-({[2-(diethylamino)ethyl]sulfonyl}amino)phenyl]amino}-4-[(3,5-difluorobenzyl)amino]pyridine-3-carboxyamide]",78%,–
CC(C)NC(=O)N1CCN(c2ccc(Nc3cc(NCc4ccccc4)c(C(N)=O)cn3)cc2)CC1 [Example 283],79%,–
"CC(C)N1CCN(c2cccc(Nc3cc(NCc4cc(F)cc(F)c4)c(C(N)=O)cn3)c2)CC1 [Example 155, 4-[(3,5-difluorobenzyl)amino]-6-({3-[4-(propan-2-yl)piperazin-1-yl]phenyl}amino)pyridine-3-carboxyamide]",59%,–
"CCN(CC)CCN1CCN(c2ccc(Nc3cc(NCc4cc(F)cc(F)c4)c(C(N)=O)cn3)cc2)CC1 [Example 238, 6-[(4-{4-[2-(diethylamino)ethyl]piperazin-1-yl}phenyl)amino]-4-[(3,5-difluorobenzyl)amino]pyridine-3-carboxyamide]",100%,–
"NC(=O)c1cnc(Nc2ccc(N3CCNCC3)cc2)cc1NCc1cc(F)cc(F)c1 [Example 221, 4-[(3,5-difluorobenzyl)amino]-6-{[4-(piperazin-1-yl)phenyl]amino}pyridine-3-carboxyamide]",78%,–
"CCCS(=O)(=O)Nc1ccc(Nc2cc(NCc3cc(F)cc(F)c3)c(C(N)=O)cn2)cc1 [Example 162, 4-[(3,5-difluorobenzyl)amino]-6-({4-[(propylsulfonyl)amino]phenyl}amino)pyridine-3-carboxyamide]",72%,–
"NC(=O)c1cnc(Nc2ccc(NC(=O)C3CCNCC3)cc2)cc1NCc1ccccc1 [Example 314, 4-(benzylamino)-6-({4-[piperidin-4-ylcarbonyl]amino]phenyl}amino)pyridine-3-carboxyamide hydrochloride]",60%,–
"CS(=O)(=O)N1CCN(c2ccc(Nc3cc(NCc4cccc(F)c4F)c(C(N)=O)cn3)cc2)CC1 [Example 292, 4-[(2,3-difluorobenzyl)amino]-6-({4-[4-(methylsulfonyl)piperazin-1-yl]phenyl}amino)pyridine-3-carboxyamide]",84%,–
"C[C@@H]1CN(c2cccc(Nc3cc(NCc4cc(F)cc(F)c4)c(C(N)=O)cn3)c2)C[C@H](C)N1 [Example 144, 4-[(3,5-difluorobenzyl)amino]-6-({3-[(3R,5S)-3,5-dimethylpiperazin-1-yl]phenyl}amino) pyridine-3-carboxyamide]",61%,–
"Cc1cccc(CNc2cc(Nc3ccc(N4CCOCC4)cc3)ncc2C(N)=O)c1 [Example 77, 4-[(3-methylbenzyl)amino]-6-[(4-morpholinophenyl)amino]pyridine-3-carboxyamide]",55%,–
"NC(=O)c1cccc(CNc2cc(Nc3ccc(N4CCOCC4)cc3)ncc2C(N)=O)c1 [Example 115, 4-[(3-carbamoylbenzyl)amino]-6-[(4-morpholinophenyl)amino]pyridine-3-carboxyamide]",70%,–
"CN1CCCC1CNc1cc(Nc2ccc(N3CCOCC3)cc2)ncc1C(N)=O (stereo not shown) [Example 359, 4-{[(1-methylpyrrolidin-2-yl)methyl]amino}-6-[(4-morpholinophenyl)amino]pyridine-3-carboxyamide]",–,61%
"NC(=O)c1cnc(Nc2ccc(NCCO)cc2)cc1NCc1cc(F)cc(F)c1 [Example 234, 4-[(3,5-difluorobenzyl)amino]-6-({4-[(2-hydroxyethyl)amino]phenyl}amino)pyridine-3-carboxyamide]",72%,–
"C[C@@H]1CN(c2ccc(Nc3cc(NCc4cc(F)ccc4F)c(C(N)=O)cn3)cc2)C[C@H](C)N1 [Example 142, 4-[(2,5-difluorobenzyl)amino]-6-({4-[(3R,5S)-3,5-dimethylpiperazin-1-yl]phenyl}amino) pyridine-3-carboxyamide]",66%,–
"CN1CCN(c2ccc(Nc3cc(NCc4ccccc4)c(C(N)=O)cn3)cc2)CC1 [Example 145, 4-(benzylamino)-6-{[4-(4-methylpiperazin-1-yl)phenyl]amino}pyridine-3-carboxyamide]",63%,–
"N#CCC(=O)N1CCN(c2ccc(Nc3cc(NCc4ccccc4)c(C(N)=O)cn3)cc2)CC1 [Example 262, 4-(benzylamino)-6-({4-[4-(cyanoacetyl)piperazin-1-yl]phenyl}amino)pyridine-3-carboxyamide]",78%,–
"NC(=O)c1cnc(Nc2ccc(N3CCOCC3)cc2)cc1NCc1c(F)cccc1F [Example 94, 4-[(2,6-difluorobenzyl)amino]-6-[(4-morpholinophenyl)amino]pyridine-3-carboxyamide]",96%,–
N#CCCN1CCN(c2ccc(Nc3cc(NCc4ccccc4)c(C(N)=O)cn3)cc2)CC1 [Example 241],70%,–

SMILES,inhibition at 0.1 µM,inhibition at 1 µM
"NC(=O)c1cnc(Nc2ccc(N3CCCN(CCO)CC3)cc2)cc1NCc1ccccc1 [Example 245, 4-(benzylamino)-6-({4-[4-(2-hydroxyethyl)-1,4-diazepan-1-yl]phenyl}amino)pyridine-3-carboxyamide]",62%,–
"NC(=O)c1cnc(Nc2ccc(N3CCOCC3)cc2)cc1NCc1cc(F)cc(C(F)(F)F)c1 [Example 96, 6-[(4-morpholinophenyl)amino]-4-{[3-fluoro-5-(trifluoromethyl)benzyl]amino}pyridine-3-carboxyamide]",74%,–
"COCCNc1ccc(Nc2cc(NCc3cc(F)cc(F)c3)c(C(N)=O)cn2)cc1 [Example 233, 4-[(3,5-difluorobenzyl)amino]-6-({4-[(2-methoxyethyl)amino]phenyl}amino)pyridine-3-carboxyamide]",74%,–
"NC(=O)c1cnc(Nc2ccc(NC(=O)[C@@H]3CCCN3)cc2)cc1NCc1cc(F)cc(F)c1 [Example 317, 4-[(3,5-difluorobenzyl)amino]-6-{[4-(L-prolylamino)phenyl]amino}pyridine-3-carboxyamide hydrochloride]",62%,–
"NC(=O)c1cnc(Nc2ccc(N3CCNCC3)cc2)cc1NCc1cccc([N+](=O)[O-])c1 [Example 224, 4-[(3-nitrobenzyl)amino]-6-{[4-(piperazin-1-yl)phenyl]amino}pyridine-3-carboxyamide]",68%,–
"CC(=O)N1CCCC1CNc1cc(Nc2ccc(N3CCOCC3)cc2)ncc1C(N)=O (stereo not shown) [Example 360, 4-{[(1-acetylpyrrolidin-2-yl)methyl]amino}-6-[(4-morpholinophenyl)amino]pyridine-3-carboxyamide]",–,57%
"NC(=O)c1cnc(-c2c[nH]c3ncccc23)cc1NCc1cc(F)cc(F)c1 [Example 371, 4-[(3,5-difluorobenzyl)amino]-6-(1H-pyrrolo[2,3-b]pyridin-3-yl)pyridine-3-carboxyamide]",–,42%
"N#CCC(=O)N1CCN(c2ccc(Nc3cc(NCc4c(F)cccc4F)c(C(N)=O)cn3)cc2)CC1 [Example 266, 6-({4-[4-(cyanoacetyl)piperazin-1-yl]phenyl}amino)-4-[(2,6-difluorobenzyl)amino]pyridine-3-carboxyamide]",77%,–
"CCN(CC)CCC1CCN(c2ccc(Nc3cc(NCc4ccccc4)c(C(N)=O)cn3)cc2)CC1 [Example 59, 4-(benzylamino)-6-[(4-{4-[2-(diethylamino)ethyl]piperidino}phenyl)amino]pyridine-3-carboxyamide]",76%,–
"N#CCC(=O)N1CCN(c2cccc(Nc3cc(NCc4cc(F)cc(F)c4)c(C(N)=O)cn3)c2)CC1 [Example 267, 6-({3-[4-(cyanoacetyl)piperazin-1-yl]phenyl}amino)-4-[(3,5-difluorodibenzyl)amino]pyridine-3-carboxyamide]",72%,–
"NCCS(=O)(=O)Nc1ccc(Nc2cc(NCc3cc(F)cc(F)c3)c(C(N)=O)cn2)cc1 [Example 305, 6-[(4-{[(2-aminoethyl)sulfonyl]amino}phenyl)amino]-4-[(3,5-difluorobenzyl)amino]pyridine-3-carboxyamide]",77%,–
"Cc1ccccc1CNc1cc(Nc2ccc(N3CCC(O)CC3)cc2)ncc1C(N)=O [Example 185, 4-[(2-methylbenzyl)amino]-6-{[4-(4-hydroxypiperidino)phenyl]amino}pyridine-3-carboxyamide]",87%,–
"NC(=O)c1cnc(Nc2ccc(N3CCC(C(=O)NCCO)CC3)cc2)cc1NCc1ccccc1 [Example 176, 4-(benzylamino)-6-[(4-{4-[(2-hydroxyethyl)carbamoyl]piperidino}phenyl)amino]pyridine-3-carboxyamide]",86%,–
"CC(C)NC(=O)N1CCN(c2ccc(Nc3cc(NCc4cccc([N+](=O)[O-])c4)c(C(N)=O)cn3)cc2)CC1 [Example 284, 4-[(3-nitrobenzyl)amino]-6-[(4-{[4-(propan-2-yl)carbamoyl]piperazin-1-yl}phenyl)amino]pyridine-3-carboxyamide]",63%,–
"COc1ccc(F)cc1CNc1cc(Nc2ccc(N3CCOCC3)cc2)ncc1C(N)=O [Example 99, 4-[(5-fluoro-2-methoxybenzyl)amino]-6-[(4-morpholinophenyl)amino]pyridine-3-carboxyamide]",80%,–
"NC(=O)c1cnc(Nc2ccc(N3CCOCC3)nc2)cc1NCc1ccccc1 [Example 373, 4-benzylamino-6-[(6-morpholinopyridin-3-yl)amino]pyridine-3-carboxyamide]",–,81%
"NC(=O)c1cnc(Nc2ccc(C(=O)O)cc2)cc1NCc1cc(F)cc(F)c1 [Example 332, 6-[(4-carboxyphenyl)amino]-4-[(3,5-difluorobenzyl)amino]pyridine-3-carboxyamide]",69%,–
"NC(=O)c1cnc(Nc2ccc(N3CCOCC3)cc2)cc1NCc1cccc(F)c1F [Example 90, 4-[(2,3-difluorobenzyl)amino]-6-[(4-morpholinophenyl)amino]pyridine-3-carboxyamide]",77%,–

# Same assay, conditions: test compound at 0.1 μM
row,SMILES,Inhibition rate (%) of JAK3 kinase activity
1,CS(=O)(=O)NCCCc1ccc(Nc2cc(NCc3cc(F)cc(F)c3)c(C(N)=O)cn2)cc1 [Example 202],88%
